Tests used:
5-HT1A receptor = molecular target: T1, 5-HT1A receptor (Rattus norvegicus, UniProt P19327); assay: [3H]-8-OH-DPAT radioligand binding assay; details: for inhibition at 300 µM: read-out: 5-HT1A Binding Inhibition (%) [300 μM]
T1 sequence (P19327 1-422): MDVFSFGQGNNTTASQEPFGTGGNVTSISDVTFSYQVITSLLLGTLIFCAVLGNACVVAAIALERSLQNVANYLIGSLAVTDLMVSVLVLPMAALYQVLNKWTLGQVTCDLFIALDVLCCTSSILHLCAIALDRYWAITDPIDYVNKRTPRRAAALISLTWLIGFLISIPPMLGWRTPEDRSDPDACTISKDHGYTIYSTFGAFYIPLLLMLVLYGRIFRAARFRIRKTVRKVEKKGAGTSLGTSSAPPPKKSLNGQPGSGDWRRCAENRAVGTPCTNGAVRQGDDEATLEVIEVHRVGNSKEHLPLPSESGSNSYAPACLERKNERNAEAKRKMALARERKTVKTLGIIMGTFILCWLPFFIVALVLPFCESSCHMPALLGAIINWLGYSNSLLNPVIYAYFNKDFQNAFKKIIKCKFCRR

μ-opioid receptor = μ-opioid receptor (Rattus norvegicus, UniProt P33535); assay: [3H]-DAMGO radioligand binding assay; details: for inhibition at 300 µM: read-out: μ-opioid Binding inhibition (%) [300 μM]; for Ki: μ-opioid Ki, [3H]-DAMGO, rat forebrain membranes, Ki ± SEM, 2 determinations
[1] = system: BDZ-bs of the GABAA receptor; assay: [3H]-FNZ radioligand binding assay; details: [3H]-FNZ displacement, compound at 300 μM, rat cerebral cortex membranes

Chain of μ-opioid receptor (P33535 whole entry): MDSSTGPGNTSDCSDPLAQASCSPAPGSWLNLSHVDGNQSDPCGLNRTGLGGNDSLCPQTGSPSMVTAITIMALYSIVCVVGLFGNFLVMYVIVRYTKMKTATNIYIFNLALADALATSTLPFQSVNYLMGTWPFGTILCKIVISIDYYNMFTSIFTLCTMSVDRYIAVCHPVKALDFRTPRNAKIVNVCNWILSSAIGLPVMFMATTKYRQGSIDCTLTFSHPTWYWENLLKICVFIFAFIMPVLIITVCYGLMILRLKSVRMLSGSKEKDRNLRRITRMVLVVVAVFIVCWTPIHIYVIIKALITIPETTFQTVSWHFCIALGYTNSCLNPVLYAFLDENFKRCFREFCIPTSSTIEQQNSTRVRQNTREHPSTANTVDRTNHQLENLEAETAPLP

| Ki (5-HT1A receptor) [µM] | inhibition at 300 µM (5-HT1A receptor) [%] | inhibition at 300 µM (μ-opioid receptor) [%] | BDZ-bs Binding inhibition (%) [300 μM] [1] | Ki (μ-opioid receptor) [µM] | Compound |
| --- | --- | --- | --- | --- | --- |
| 71.4 ± 1.4 | 60 to 90 | 20 to 40 | +++ (inhibition 60–90% (+++)) |  | O=C(/C=C/c1ccccc1)c1ccccc1O [Compound 2, (2E)-1-(2-hydroxyphenyl)-3-phenyl-2-propen-1-one] |
|  | 20 to 40 | 20 to 40 | +++ (inhibition 60–90% (+++)) |  | COc1ccc(C(=O)/C=C/c2ccccc2)c(O)c1 [Compound 3, (2E)-1-(2-hydroxy-4-methoxyphenyl)-3-phenyl-2-propen-1-one] |
| 303 ± 1.2 | 60 to 90 | 60 to 90 | +++ (inhibition 60–90% (+++)) | 54.6 ± 2.9 | COc1ccc(O)c(C(=O)/C=C/c2ccccc2)c1 [Compound 4, (2E)-1-(2-hydroxy-5-methoxyphenyl)-3-phenyl-2-propen-1-one] |
| 129 ± 2.7 | 60 to 90 | 60 to 90 | ++ (inhibition 40–60% (++)) | 29.5 ± 6.6 | O=C(/C=C/c1ccccc1)c1cc(F)ccc1O [Compound 7, (2E)-1-(5-fluoro-2-hydroxyphenyl)-3-phenyl-2-propen-1-one] |
|  | 40 to 60 | 20 to 40 | ++ (inhibition 40–60% (++)) |  | O=C(/C=C/c1ccccc1)c1cc(Br)ccc1O [Compound 8, (2E)-1-(5-bromo-2-hydroxyphenyl)-3-phenyl-2-propen-1-one] |
| 1220 ± 469 | 60 to 90 | 60 to 90 | - (inhibition <20% (-)) | 32.5 ± 9.3 | O=C(/C=C/c1ccccc1)c1cc(Br)cc(Br)c1O [Compound 10, (2E)-1-(3,5-dibromo-2-hydroxyphenyl)-3-phenyl-2-propen-1-one] |
| 164 ± 1.47 | 60 to 90 | 60 to 90 | + (inhibition 20–40% (+)) | 29.1 ± 8.5 | Cc1cc(O)c(C(=O)/C=C/c2ccccc2)cc1C [Compound 11, (2E)-1-(4,5-dimethyl-2-hydroxyphenyl)-3-phenyl-2-propen-1-one] |
| 287.8 ± 1.9 | 40 to 60 | 40 to 60 | ++ (inhibition 40–60% (++)) |  | COc1cc(C(=O)/C=C/c2ccccc2)ccc1O [Compound 13, (2E)-1-(4-hydroxy-3-methoxyphenyl)-3-phenyl-2-propen-1-one] |
|  | 40 to 60 | 60 to 90 | +++ (inhibition 60–90% (+++)) | 59.4 ± 1.5 | Nc1ccc(C(=O)/C=C/c2ccccc2)cc1 [Compound 14, (2E)-1-(4-aminophenyl)-3-phenyl-2-propen-1-one] |
|  | 40 to 60 | 20 to 40 | +++ (inhibition 60–90% (+++)) |  | Cc1ccc(C(=O)/C=C/c2ccccc2)cc1 [Compound 15, (2E)-1-(4-methylphenyl)-3-phenyl-2-propen-1-one] |
|  | < 20 | 20 to 40 | - (inhibition <20% (-)) |  | O=C(/C=C/c1ccc([N+](=O)[O-])cc1)c1ccccc1 [Compound 17, (2E)-3-(4-nitrophenyl)-1-phenyl-2-propen-1-one] |
|  | 20 to 40 | 20 to 40 | ++ (inhibition 40–60% (++)) |  | O=C(/C=C/c1cccc(Cl)c1)c1ccccc1 [Compound 18, (2E)-3-(3-chlorophenyl)-1-phenyl-2-propen-1-one] |
|  | < 20 | 20 to 40 | + (inhibition 20–40% (+)) |  | O=C(/C=C/c1ccc(Cl)cc1)c1ccccc1 [Compound 19, (2E)-3-(4-chlorophenyl)-1-phenyl-2-propen-1-one] |
| 473 ± 7.3 | 60 to 90 | 40 to 60 |  |  | Nc1ccc(C(=O)/C=C/c2cccc([N+](=O)[O-])c2)cc1 [Compound 21, (2E)-1-(4-aminophenyl)-3-(3-nitrophenyl)-2-propen-1-one] |

Source: paper PMC6430037 (Heliyon, 2019)
